From patent publication US20170368082A1, “FORMULATIONS OF BRINCIDOFOVIR” (priority 2016, published 2017)
Several values for one entry are separate records, joined by “and”; a condition that tells them apart may be missing. Identical values can stand only once. Like-named read-outs stand apart in the source and are kept apart here.

Assay: Phase 2 toxicokinetics of brincidofovir and cidofovir in plasma
Format: in vivo, Sprague-Dawley CD rats
Design: Imputed Concentration, Mean: unit: ng/mL
Conditions: for cidofovir Concentration (C): individual animals; for concentration at 1 h / concentration at 2 h / concentration at 8 h / concentration at 24 h / concentration at 0 h: Sprague-Dawley CD, rat, intravenous, 1 mg/kg; for concentration at 1 h / concentration at 2 h / concentration at 8 h / concentration at 24 h / concentration at 0 h / Imputed Concentration, individual animals / Imputed Concentration, Mean: plasma, BLQ imputed as zero
Experimental: Plasma samples (108) were collected 2 hours following the initiation of dosing on Day 1 and Day 7 (Group 1), or at 1, 2, 8, and 24 hours following the initiation of dosing on Day 1, and prior to administration and at 2, 8, and 24 hours following the initiation of dosing on Day 7 (Groups 2 and 3), and analyzed to determine the concentrations of brincidofovir and the metabolite, cidofovir), by LC/MS/MS.
Approximately 0.4 mL of whole blood was obtained via the tail vein from each animal at each time point. Animals were not fasted prior to blood collection. Blood was collected into tubes containing K2EDTA anticoagulant and placed on wet ice in an upright position, per facility SOP prior to processing. Plasma was separated by centrifugation (10 minutes at approximately 2000 g, at approximately 2-8° C.). Approximately 0.10 mL of plasma was transferred into a single cryotube appropriately labeled with study number, animal number, time point, date of sampling and sample type. Remaining plasma was transferred into a second cryotube and retained as a backup sample. Plasma frozen at approximately −80±10° C. within approximately 2 hours after collection of each blood sample until analysis. Animals were euthanized (CO2 inhalation) after the final blood collection.
In general, TK parameters were estimated using mean plasma concentrations of brincidofovir and cidofovir derived from the composite blood sampling design using Phoenix WinNonLin (V 6.3).
A composite blood sampling design was used such that each rat was sampled twice per sampling day. Blood was collected via tail vein from unanesthetized animals into tubes containing anticoagulant and placed on wet ice in an upright position. Animals were not fasted prior to blood collection. Plasma was separated by centrifugation (for 10 minutes at approximately 2000 g, at approximately 2-8° C.), and transferred into individually labeled cryotubes. All cryotubes containing the collected plasma samples were appropriately labeled as to study number, animal number, time point, date of sampling and sample type. All plasma samples were obtained and frozen at approximately −80° C. (±10° C.) within approximately 2 hours after collection of each blood sample until analysis.
Rat plasma bioanalysis was conducted by Pyxant Laboratories. Plasma samples were analyzed for concentrations of brincidofovir and cidofovir using a method based upon protein precipitation extraction followed by LC-MS/MS analysis; calibration ranges for brincidofovir and cidofovir were 1.00-1500 ng/mL and 5.00-750 ng/mL, respectively, (Pyxant study number 3025) for a 50 μL aliquot of rat plasma. Sample analysis for ISR was not performed as part of this non-GLP study.
For the generation of Mean Profiles, all sample concentrations that were below the limit of quantitation (BLQ) were set to 0.
All pharmacokinetic parameter estimates were completed using a Non-Compartmental Model (Model 200-202 for IV infusion administration). The AUClast and AUCinf were calculated using the linear up log down trapezoidal rule.

[1] = brincidofovir 1 mg/kg 2-h IV infusion, female rats, Day 7, 0 h
[2] = brincidofovir 1 mg/kg 2-h IV infusion, female rats, Day 7, 2 h
[3] = brincidofovir 1 mg/kg 2-h IV infusion, female rats, Day 7, 8 h
[4] = brincidofovir 1 mg/kg 2-h IV infusion, female rats, Day 7, 24 h
[5] = brincidofovir 1 mg/kg 2-h IV infusion, male rats, Day 7, 2 h
[6] = brincidofovir 1 mg/kg 2-h IV infusion, male rats, Day 7, 8 h
[7] = brincidofovir 1 mg/kg 2-h IV infusion, male rats, Day 7, 24 h
[8] = brincidofovir 15 mg/kg 2-h IV infusion, female rats, Day 1, 1 h
[9] = brincidofovir 15 mg/kg 2-h IV infusion, female rats, Day 1, 2 h
[10] = brincidofovir 15 mg/kg 2-h IV infusion, female rats, Day 1, 8 h
[11] = brincidofovir 15 mg/kg 2-h IV infusion, female rats, Day 1, 24 h
[12] = brincidofovir 15 mg/kg 2-h IV infusion, female rats, Day 7, 0 h
[13] = brincidofovir 15 mg/kg 2-h IV infusion, female rats, Day 7, 2 h
[14] = brincidofovir 15 mg/kg 2-h IV infusion, male rats, Day 1, 1 h
[15] = brincidofovir 15 mg/kg 2-h IV infusion, male rats, Day 1, 2 h
[16] = brincidofovir 15 mg/kg 2-h IV infusion, male rats, Day 1, 8 h
[17] = brincidofovir 15 mg/kg 2-h IV infusion, male rats, Day 1, 24 h
[18] = brincidofovir 15 mg/kg 2-h IV infusion, male rats, Day 7, 0 h
[19] = brincidofovir 15 mg/kg 2-h IV infusion, male rats, Day 7, 2 h

Nc1ccn(C[C@@H](CO)OCP(=O)(O)O)c(=O)n1 [Cidofovir]
cidofovir Concentration (C) (brincidofovir 1 mg/kg, Female, Day 1, 1 h): BLQ | cidofovir Concentration (C) (brincidofovir 1 mg/kg, Female, Day 1, 8 h): BLQ | cidofovir Concentration (C) (brincidofovir 1 mg/kg, Female, Day 1, 24 h): BLQ | cidofovir Concentration (C) (brincidofovir 1 mg/kg, Female, Day 7, 0 h): BLQ | cidofovir Concentration (C) (brincidofovir 1 mg/kg, Female, Day 7, 24 h): BLQ | cidofovir Concentration (C) (brincidofovir 1 mg/kg, Male, Day 1, 1 h): BLQ | cidofovir Concentration (C) (brincidofovir 1 mg/kg, Male, Day 1, 2 h): BLQ | cidofovir Concentration (C) (brincidofovir 1 mg/kg, Male, Day 1, 8 h): BLQ | cidofovir Concentration (C) (brincidofovir 1 mg/kg, Male, Day 1, 24 h): BLQ | cidofovir Concentration (C) (brincidofovir 1 mg/kg, Male, Day 7, 0 h): BLQ | cidofovir Concentration (C) (brincidofovir 1 mg/kg, Male, Day 7, 2 h): BLQ | cidofovir Concentration (C) (brincidofovir 1 mg/kg, Male, Day 7, 24 h): BLQ | cidofovir Concentration (C) (brincidofovir 15 mg/kg, Female, Day 7, 0 h): BLQ | cidofovir Concentration (C) (brincidofovir 15 mg/kg, Male, Day 1, 1 h): BLQ | cidofovir Concentration (C) (brincidofovir 15 mg/kg, Male, Day 7, 0 h): BLQ | concentration at 1 h (female, brincidofovir 1 mg/kg 2-h IV infusion, female rats, Day 1, 1 h, read-out: Imputed Concentration, Mean): 0 ng/mL | concentration at 1 h (female, brincidofovir 1 mg/kg 2-h IV infusion, female rats, Day 1, 1 h, read-out: Imputed Concentration, individual animals): 0 ng/mL | concentration at 2 h (female, brincidofovir 1 mg/kg 2-h IV infusion, female rats, Day 1, 2 h, read-out: Imputed Concentration, Mean): 9.35 ng/mL | concentration at 2 h (female, brincidofovir 1 mg/kg 2-h IV infusion, female rats, Day 1, 2 h, read-out: Imputed Concentration, individual animals): 9.62 ng/mL | concentration at 8 h (female, brincidofovir 1 mg/kg 2-h IV infusion, female rats, Day 1, 8 h, read-out: Imputed Concentration, Mean): 4.24 ng/mL | concentration at 24 h (female, brincidofovir 1 mg/kg 2-h IV infusion, female rats, Day 1, 24 h, read-out: Imputed Concentration, Mean): 0 ng/mL | concentration at 24 h (female, brincidofovir 1 mg/kg 2-h IV infusion, female rats, Day 1, 24 h, read-out: Imputed Concentration, individual animals): 0 ng/mL | concentration at 0 h (female, brincidofovir 1 mg/kg 2-h IV infusion, female rats, Day 7, 0 h, read-out: Imputed Concentration, individual animals): 0 ng/mL | concentration at 1 h (male, brincidofovir 1 mg/kg 2-h IV infusion, male rats, Day 1, 1 h, read-out: Imputed Concentration, Mean): 0 ng/mL | concentration at 1 h (male, brincidofovir 1 mg/kg 2-h IV infusion, male rats, Day 1, 1 h, read-out: Imputed Concentration, individual animals): 0 ng/mL | concentration at 2 h (male, brincidofovir 1 mg/kg 2-h IV infusion, male rats, Day 1, 2 h, read-out: Imputed Concentration, Mean): 0 ng/mL | concentration at 2 h (male, brincidofovir 1 mg/kg 2-h IV infusion, male rats, Day 1, 2 h, read-out: Imputed Concentration, individual animals): 0 ng/mL | concentration at 8 h (male, brincidofovir 1 mg/kg 2-h IV infusion, male rats, Day 1, 8 h, read-out: Imputed Concentration, Mean): 1.95 ng/mL | concentration at 24 h (male, brincidofovir 1 mg/kg 2-h IV infusion, male rats, Day 1, 24 h, read-out: Imputed Concentration, Mean): 0 ng/mL | concentration at 24 h (male, brincidofovir 1 mg/kg 2-h IV infusion, male rats, Day 1, 24 h, read-out: Imputed Concentration, individual animals): 0 ng/mL | concentration at 0 h (male, brincidofovir 1 mg/kg 2-h IV infusion, male rats, Day 7, 0 h, read-out: Imputed Concentration, Mean): 0 ng/mL | concentration at 0 h (male, brincidofovir 1 mg/kg 2-h IV infusion, male rats, Day 7, 0 h, read-out: Imputed Concentration, individual animals): 0 ng/mL | Imputed Concentration, individual animals (brincidofovir 1 mg/kg 2-h IV infusion, female rats, Day 1, 1 h): 0.00 ng/mL | Imputed Concentration, individual animals (brincidofovir 1 mg/kg 2-h IV infusion, female rats, Day 1, 2 h): 6.22 ng/mL and 12.2 ng/mL | Imputed Concentration, individual animals (brincidofovir 1 mg/kg 2-h IV infusion, female rats, Day 1, 8 h): 7.12 ng/mL and 5.60 ng/mL and 0.00 ng/mL | Imputed Concentration, individual animals (brincidofovir 1 mg/kg 2-h IV infusion, female rats, Day 1, 24 h): 0.00 ng/mL | Imputed Concentration, Mean [1]: 0.00 ng/mL | Imputed Concentration, individual animals [1]: 0.00 ng/mL | Imputed Concentration, Mean [2]: 15.0 ng/mL | Imputed Concentration, individual animals [2]: 13.5 ng/mL and 13.8 ng/mL and 17.6 ng/mL | Imputed Concentration, Mean [3]: 7.57 ng/mL | Imputed Concentration, individual animals [3]: 9.51 ng/mL and 7.84 ng/mL and 5.36 ng/mL | Imputed Concentration, Mean [4]: 0.00 ng/mL | Imputed Concentration, individual animals [4]: 0.00 ng/mL | Imputed Concentration, individual animals (brincidofovir 1 mg/kg 2-h IV infusion, male rats, Day 1, 1 h): 0.00 ng/mL | Imputed Concentration, individual animals (brincidofovir 1 mg/kg 2-h IV infusion, male rats, Day 1, 2 h): 0.00 ng/mL | Imputed Concentration, individual animals (brincidofovir 1 mg/kg 2-h IV infusion, male rats, Day 1, 8 h): 5.85 ng/mL and 0.00 ng/mL (2×) | Imputed Concentration, individual animals (brincidofovir 1 mg/kg 2-h IV infusion, male rats, Day 1, 24 h): 0.00 ng/mL | Imputed Concentration, individual animals (brincidofovir 1 mg/kg 2-h IV infusion, male rats, Day 7, 0 h): 0.00 ng/mL | Imputed Concentration, Mean [5]: 0.00 ng/mL | Imputed Concentration, individual animals [5]: 0.00 ng/mL | Imputed Concentration, Mean [6]: 5.73 ng/mL | Imputed Concentration, individual animals [6]: 5.67 ng/mL and 5.45 ng/mL and 6.07 ng/mL | Imputed Concentration, Mean [7]: 0.00 ng/mL | Imputed Concentration, individual animals [7]: 0.00 ng/mL | Imputed Concentration, Mean [8]: 15.1 | Imputed Concentration, individual animals [8]: 14.5 and 20.5 and 10.3 | Imputed Concentration, Mean [9]: 28.7 | Imputed Concentration, individual animals [9]: 10.9 and 41.2 and 34.1 | Imputed Concentration, Mean [10]: 38.6 | Imputed Concentration, individual animals [10]: 37.3 and 37.7 and 40.7 | Imputed Concentration, Mean [11]: 22.1 | Imputed Concentration, individual animals [11]: 24.6 and 23.2 and 18.6 | Imputed Concentration, Mean [12]: 0.00 | Imputed Concentration, individual animals [12]: 0.00 | Imputed Concentration, Mean [13]: 34.5 | Imputed Concentration, individual animals [13]: 20.2 and 49.1 and 34.2 | Imputed Concentration, individual animals (brincidofovir 15 mg/kg 2-h IV infusion, female rats, Day 7, 8 h): 36.4 and 54.2 | Imputed Concentration, Mean [14]: 5.35 | Imputed Concentration, individual animals [14]: 8.97 and 0.00 and 7.08 | Imputed Concentration, Mean [15]: 18.0 | Imputed Concentration, individual animals [15]: 25.9 and 13.1 and 15.1 | Imputed Concentration, Mean [16]: 32.8 | Imputed Concentration, individual animals [16]: 35.8 and 29.5 and 33.0 | Imputed Concentration, Mean [17]: 16.7 | Imputed Concentration, individual animals [17]: 20.5 and 14.0 and 15.5 | Imputed Concentration, Mean [18]: 0.00 | Imputed Concentration, individual animals [18]: 0.00 | Imputed Concentration, Mean [19]: 24.0 | Imputed Concentration, individual animals [19]: 38.8 and 15.0 and 18.3 | Imputed Concentration, individual animals (brincidofovir 15 mg/kg 2-h IV infusion, male rats, Day 7, 8 h): 38.4 and 31.1 and 28.8
